Laboratory results: US20220354811A1, “METHODS AND COMPOSITIONS FOR MODULATING MACROPHAGES POLARIZATION” (INSERM (INSTITUT NATIONAL DE LA SANTÉ ET DE LA RECHERCHE …, priority 2019, published 2022)

How the values were obtained:
[1] = test system: human freshly isolated monocytes; assay: Spontaneous apoptosis of untreated monocytes cultured without CSF-1 (Annexin V staining); assay type: cell-based; conditions: 24 h in culture without CSF-1
caspases 8, 3 and 7 = assay: Western blot of caspase cleavage in monocytes; assay type: cell-based, human; conditions: for cleavage of effector caspases-3 and -7 at their specific differentiation cleavage site: monocytes treated 2 days with CSF-1; for cleavage of the zymogens of caspases 8, 3 and 7 in their active 17-20 kDa fragments: untreated monocytes without CSF-1, 24 h
Description: Lysates were centrifuged at 20,000 g (15 min, 4° C.) and supernatants were supplemented with concentrated loading buffer (4× Laemmli buffer). Fifty micrograms of proteins were separated and transferred following standard protocols before analysis with the chemiluminescence detection kit (GE Healthcare, RPN2105).

caspase-8 = caspase-8 (Homo sapiens, UniProt Q14790); assay: Recombinant caspase-8 activity in vitro (Ac-IETD-AMC substrate); assay type: biochemical; set-up: using active recombinant proteins of caspase-8 and caspase-3; purchased Enzo life sciences ALX-201-062; conditions: recombinant caspase-8, Ac-IETD-AMC
Sequence of caspase-8 (Q14790 217-374 limits assumed): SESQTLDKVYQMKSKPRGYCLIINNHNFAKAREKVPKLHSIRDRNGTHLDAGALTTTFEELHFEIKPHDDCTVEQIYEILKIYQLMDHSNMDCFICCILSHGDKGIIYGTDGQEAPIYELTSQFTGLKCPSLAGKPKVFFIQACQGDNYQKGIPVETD
Sequence of caspase-8 (Q14790 385-479 limits assumed): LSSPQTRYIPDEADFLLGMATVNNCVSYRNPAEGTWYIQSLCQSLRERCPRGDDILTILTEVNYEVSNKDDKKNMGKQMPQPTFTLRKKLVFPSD
From the text: (§1) FIG. 4. […] (A) Measures of caspase-8 activity (IETD-AMC). IETD-CHO treatment is used as positive control in the in vitro assay. The results are expressed as A.U./min and represent the mean of 3 independent experiments realized in duplicate (B) Measures of caspase-3 activity (DEVD-AMC). DEVD-CHO is used as positive control in the in vitro assay. The results are expressed as A.U./min and represent the mean of 3 independent experiments realized in duplicate. Human CSF-1 was purchased from Miltenyi (130-096-493). […] Mouse caspase-8 was from R&D Systems (AF705). HRP-conjugated rabbit anti-goat was purchased from Dako ([…]) and HRP-conjugated goat anti-rabbit was from Cell Signaling (5127). Active recombinant caspase-8 (ALX-201-062) and -3 (ALX-201-059) were from Enzo life sciences. […] Each assay (in triplicate) was performed with 10 μg of protein prepared from control or stimulated cells. […] Enzyme activities were expressed in arbitrary units (A.U.) per min and per mg of proteins. The same protocol was used with 0.25 units of active recombinant caspase-8 (Enzo, ALX-201-062) or -3 (Enzo, ALX-201-059) in each triplicate.

caspase 3 = target: T1, caspase 3 (Homo sapiens, UniProt P42574); assay: Recombinant caspase-3 activity in vitro (Ac-DEVD-AMC substrate); assay type: biochemical; set-up: using active recombinant proteins of caspase-8 and caspase-3; purchased Enzo life sciences ALX-201-059; conditions: recombinant caspase-3, Ac-DEVD-AMC
T1 sequence (P42574 29-175 limits assumed): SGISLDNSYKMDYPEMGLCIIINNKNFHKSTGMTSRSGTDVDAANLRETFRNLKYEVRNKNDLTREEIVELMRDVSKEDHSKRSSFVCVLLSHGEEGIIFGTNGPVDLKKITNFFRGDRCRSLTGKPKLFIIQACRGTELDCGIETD
T1 sequence (P42574 176-277 limits assumed): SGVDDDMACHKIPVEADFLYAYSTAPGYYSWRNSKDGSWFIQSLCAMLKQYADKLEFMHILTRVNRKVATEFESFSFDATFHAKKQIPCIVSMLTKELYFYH
From the text: as §1

| SMILES | concentration sufficient to abrogate Annexin V staining [1] [µM] | cleavage of effector caspases-3 and -7 at their specific differentiation cleavage site (caspases 8, 3 and 7) | cleavage of the zymogens of caspases 8, 3 and 7 in their active 17-20 kDa fragments (caspases 8, 3 and 7) | IC50 (caspase-8) [µM] | concentration that abrogated / fully inhibited caspase-8 activity (caspase-8) [µM] | IC50 (caspase 3) [µM] | concentration of maximal inhibition of caspase-3 (caspase 3) [µM] |
| --- | --- | --- | --- | --- | --- | --- | --- |
| C[C@H](NC(=O)C(=O)Nc1ccccc1C(C)(C)C)C(=O)N[C@@H](CC(=O)O)C(=O)COc1c(F)c(F)cc(F)c1F [Emricasan, (S)-3-((S)-2-(2-((2-(tert-Butyl)phenyl)amino)-2-oxoacetamido)propanamido)-4-oxo-5-(2,3,5,6-tetrafluorophenoxy)pentanoic acid] | 2 | impaired | abrogated | 0.012 | 0.2 | ~0.5 | 10 |
| CC(C)[C@H](NC(=O)c1ccc2ccccc2n1)C(=O)N[C@@H](CC(=O)O)C(=O)COc1c(F)cccc1F [Q-VD-OPh] | ≤ 5 | impaired | abrogated | ~1 | 50 | ~0.5 | 10 |
